Source: paper PMC6474387, “Salt-Tolerant Antifungal and Antibacterial Activities of the Corn Defensin ZmD32” (Frontiers in Microbiology, 2019)
Read-outs that look alike come from different tables or passages of the source.

Assays:
C. krusei = assay type: cell-based, Candida krusei; settings: OD595, 24 h
S. aureus = settings: assays conducted in LB; ref van der Weerden et al., 2008; cited from earlier work
From the text: (§1) The antibacterial activity of ZmD32 and NaD1 adds to a growing list of antibacterial defensins ([Sathoff and Samac, 2018]; [Sathoff et al., 2018]; [Velivelli et al., 2018]), a protein family that is best known for antifungal activity ([van der Weerden and Anderson, 2013]; [van der Weerden et al., 2013]; [Parisi et al., 2018]). The lack of reported antibacterial activity for plant defensins likely reflects the medium used for antibacterial assays, Here the ½ PDB pH 7 medium has a NaCl concentration of less than 10 mM. This concentration is considerably lower than growth media often used in anti ...

E. coli [1] = settings: assays conducted in LB; ref van der Weerden et al., 2008; cited from earlier work
From the text: as §1

F. graminearum PH-1 = assay type: cell-based, Fusarium graminearum; settings: ½ PDB, no added NaCl; 5 × 10^4 spores/mL; OD595, 24 h
C. albicans ATCC 90028 = assay type: cell-based, Candida albicans
C. parapsilosis = assay type: cell-based, Candida parapsilosis; settings: OD595, 24 h
[2] = Membrane lipid binding assay (protein-lipid overlay); settings: detected with α-NaD2 (ZmD32) or α-NaD1 (NaD1) antibody; representative of three independent experiments
Method: Lipid binding assays were performed using Membrane Lipid Strips (Echelon Biosciences) as described in ([Poon et al., 2014]). ZmD32 binding to the lipids on the strips was detected using a polyclonal antibody generated in rabbits to the defensin NaD2 with which it shares 78.7% amino acid sequence identity ([Dracatos et al., 2014]). […] Lipid binding of NaD1 was performed as described in ([Poon et al., 2014]).

P. aeruginosa PAO1 = assay type: cell-based, Pseudomonas aeruginosa; settings: ½ PDB adjusted to pH 7, no added NaCl; OD595, 24 h
[3] = system: prostate cancer (PC3) cells; assay: MTT cell viability assay, PC3; settings: 48 h, twofold dilution series from 50 μM down, three independent replicates
Method: (§2) Leukemia monocyte lymphoma (U937) cells and prostate cancer (PC3) cells were cultured in RPMI-1640 medium (Sigma) buffered to pH 7.2 with HEPES and supplemented with 5–10% (v/v) fetal calf serum (FCS), 100 U/mL penicillin (Sigma) and 100 μg/mL streptomycin (Invitrogen). […] All cell lines were cultured at 37°C in a humidified atmosphere containing 5% CO2. Cell viability assays were performed using an MTT assay as described in ([Poon et al., 2014]). […] IC50 values were determined using GraphPad Prism 5 (GraphPad Software, CA, United States).

C. auris = assay type: cell-based, Candida auris; settings: OD595, 24 h
S. aureus ATCC 9144 = assay type: cell-based, Staphylococcus aureus; settings: ½ PDB adjusted to pH 7, no added NaCl; OD595, 24 h
B. subtilis = assay type: cell-based, Bacillus subtilis; settings: ½ PDB adjusted to pH 7, no added NaCl, OD595, 24 h
[4] = system: Leukemia monocyte lymphoma (U937) cells; assay: MTT cell viability assay, U937; settings: 48 h, twofold dilution series from 50 μM down, three independent replicates
Method: as §2

C. albicans biofilms = assay: Anti-biofilm assay, Presto Blue viability; assay type: cell-based, Candida albicans; settings: 24 h biofilm, 24 h treatment at 37°C in RPMI (132.1 mM sodium), twofold dilution from 300 μg/mL
C. glabrata ATCC 90030 = assay type: cell-based, Candida glabrata; settings: OD595, 24 h
E. coli [5] = assay type: cell-based, Escherichia coli; settings: strain TOP10, OD595, 24 h
C. tropicalis ATCC 750 = assay type: cell-based, Candida tropicalis; settings: OD595, 24 h
[6] = system: E. coli, B. subtilis, S. aureus, and P. aeruginosa; assay type: cell-based; settings: ½ PDB, pH 7; range over four bacteria
[7] = ½ PDB + 100 mM NaCl, read-out: NaCl IC50
[8] = ½ PDB, no added NaCl, read-out: IC50

Method for human red blood cells: Human blood was obtained from the Australian Red Cross Blood Service (Melbourne, VIC, Australia) under Material Supply Agreement 14-11VIC-03. Hemolytic activity of defensins was assessed as described in ([Evans et al., 2013]). The degree of red blood cell (RBC) lysis was measured by absorbance at 412 nm, relative to water-lysed RBCs.

Substance: NaD1: well-characterized antifungal plant defensin from Nicotiana alata floral tissues or recombinant from Pichia pastoris; used as standard (RECKTESNTFPGICITKPPCRKACISEKFTDGHCSKILRRCLCTKPC; UniProt Q8GTM0 26-72, looked up)
- IC50 (C. krusei; [7]): > 10000 nM
- IC50 (C. krusei; [8]): 1200 ± 400 nM
- Activity against S. aureus (S. aureus): no activity
- Activity against E. coli (E. coli [1]): no activity
- IC50 (F. graminearum PH-1): 1000 ± 500 nM
- Activity against C. albicans in the presence of divalent metal salts (C. albicans ATCC 90028; 5 mM MgCl2 or 2 mM CaCl2, data not shown): lost activity
- IC50 (C. albicans ATCC 90028; read-out: IC50): 1600 ± 400 nM
- IC50 (C. albicans ATCC 90028; read-out: NaCl IC50): > 10000 nM
- IC50 (C. parapsilosis; [7]): 3400 ± 1200 nM
- IC50 (C. parapsilosis; [8]): 1200 ± 300 nM
- Lipids bound on membrane lipid strip [2]: bound preferentially to phosphatidylinositol-4,5-bisphosphate [PI(4,5)P2] but also bound to phosphatidic acid (PA) and cardiolipin
- IC50 (P. aeruginosa PAO1): 4300 ± 300 nM
- Effect on viability of PC3 cells [3]: decreased viability of all three cell lines at much lower concentrations than ZmD32
- IC50 (C. auris; [7]): > 10000 nM
- IC50 (C. auris; [8]): 2900 ± 500 nM
- IC50 (S. aureus ATCC 9144): 5000 ± 500 nM
- IC50 (B. subtilis): 2000 ± 200 nM
- Effect on viability of U937 cells [4]: decreased viability of all three cell lines at much lower concentrations than ZmD32
- Activity against established C. albicans biofilms (C. albicans biofilms): no activity
- IC50 (C. glabrata ATCC 90030; [7]): > 10000 nM
- IC50 (C. glabrata ATCC 90030; [8]): 2800 ± 1000 nM
- Red blood cells lysed at concentrations up to 50 μM (human red blood cells): ≤ 2%
- IC50 (E. coli [5]; ½ PDB adjusted to pH 7 + 100 mM NaCl, read-out: NaCl IC50): > 10000 nM
- IC50 (E. coli [5]; ½ PDB adjusted to pH 7, no added NaCl, read-out: IC50): 4600 ± 1600 nM
- IC50 (C. tropicalis ATCC 750; [7]): 1300 ± 500 nM
- IC50 (C. tropicalis ATCC 750; [8]): 400 ± 100 nM
- IC50 [6]: 2000 to 5000 nM
